Test results from PMC4303209, “A novel phosphatidylinositol 3-kinase (PI3K) inhibitor directs a potent FOXO-dependent, p53-independent cell cycle arrest phenotype characterized by the differential induction of a subset of FOXO-regulated genes” (Breast Cancer Research : BCR, 2014).

Test system: MCF-7 breast cancer cells
Experiment: Microarray gene expression analysis (Agilent whole human genome 4 x 44K; compound vs DMSO, LIMMA log2 fold change)
Assay type: cell-based

Cn1ncc2c(N3CCOCC3)nc(-c3cccc(O)c3)nc21 [ETP-45658]
EYA1 log2FC (gene EYA1 (2138), apoptosis genes): 0.012 | log2FC EYA1 (gene EYA1 (Gene 2138), cell cycle genes): 0.012 | FABP1 log2FC (gene FABP1 (2168), apoptosis genes): 0.009 | FAIM2 log2FC (gene FAIM2 (23017), apoptosis genes): -0.062 | FAM3B log2FC (gene FAM3B (54097), apoptosis genes): -0.028 | FAM32A log2FC (gene FAM32A (26017), apoptosis genes): -0.032 | log2FC FAM32A (gene FAM32A (Gene 26017), cell cycle genes): -0.032 | log2FC (gene FAM58A (Gene 92002), cell cycle genes): 0.217 | FAS log2FC (gene FAS (355), apoptosis genes): -0.032 | log2FC (gene FBXL15 (Gene 79176), cell cycle genes): 0.209 | log2FC FGFR1OP (gene FGFR1OP (Gene 11116), cell cycle genes): -0.035 | FIS1 log2FC (gene FIS1 (51024), apoptosis genes): -0.018 | FKSG2 log2FC (gene FKSG2 (59347), apoptosis genes): 0.133 | log2FC (gene FMN2 (Gene 56776), cell cycle genes): 0.105 | FOXB1 log2FC (gene FOXB1 (27023), apoptosis genes): -0.340 | log2FC (gene FSD1 (Gene 79187), cell cycle genes): -0.401 | GADD45G log2FC (gene GADD45G (10912), apoptosis genes): -0.067 | GAPDH log2FC (gene GAPDH (2597), apoptosis genes): -0.037 | log2FC (gene GAS2L1 (Gene 10634), cell cycle genes): -0.313 | log2FC GAS2L2 (gene GAS2L2 (Gene 246176), cell cycle genes): -0.00355 | GAS6 log2FC (gene GAS6 (2621), apoptosis genes): -0.052 | GATA6 log2FC (gene GATA6 (2627), apoptosis genes): -0.019 | log2FC GATA6 (gene GATA6 (Gene 2627), cell cycle genes): -0.019 | GCG log2FC (gene GCG (2641), apoptosis genes): 0.020 | GCLM log2FC (gene GCLM (2730), apoptosis genes): -0.092 | GCM2 log2FC (gene GCM2 (9247), apoptosis genes): -0.015 | log2FC (gene GEM (Gene 2669), cell cycle genes): 0.406 | GFRAL log2FC (gene GFRAL (389400), apoptosis genes): 0.017 | GHRL log2FC (gene GHRL (51738), apoptosis genes): -0.012 | GIMAP5 log2FC (gene GIMAP5 (55340), apoptosis genes): 0.026 | GJB6 log2FC (gene GJB6 (10804), apoptosis genes): -0.056 | log2FC (gene GOLGA2 (Gene 2801), cell cycle genes): 0.210 | log2FC (gene GORASP1 (Gene 64689), cell cycle genes): 0.146 | log2FC (gene GORASP2 (Gene 26003), cell cycle genes): -0.256 | GPI log2FC (gene GPI (2821), apoptosis genes): -0.083 | GPR65 log2FC (gene GPR65 (8477), apoptosis genes): 0.021 | GRK1 log2FC (gene GRK1 (6011), apoptosis genes): -0.013 | log2FC (gene GTPBP8 (Gene 29083), cell cycle genes): 0.316 | log2FC (gene GTSE1 (Gene 51512), cell cycle genes): -0.374 | log2FC H1FOO (gene H1FOO (Gene 132243), cell cycle genes): 0.014 | HCLS1 log2FC (gene HCLS1 (3059), apoptosis genes): 0.022 | log2FC (gene HELLS (Gene 3070), cell cycle genes): 0.388 | HIPK3 log2FC (gene HIPK3 (10114), apoptosis genes): 0.006 | log2FC HORMAD2 (gene HORMAD2 (Gene 150280), cell cycle genes): 0.014 | log2FC HPGD (gene HPGD (Gene 3248), cell cycle genes): 0.013 | HPN log2FC (gene HPN (3249), apoptosis genes): -0.022 | HTRA2 log2FC (gene HTRA2 (27429), apoptosis genes): 0.031 | log2FC HTRA2 (gene HTRA2 (Gene 27429), cell cycle genes): 0.031 | IFI6 log2FC (gene IFI6 (2537), apoptosis genes): 0.041 | IFNA2 log2FC (gene IFNA2 (3440), apoptosis genes): -0.017 | IFNB1 log2FC (gene IFNB1 (3456), apoptosis genes): 0.00571 | IL1A log2FC (gene IL1A (3552), apoptosis genes): -0.044 | IL2RA log2FC (gene IL2RA (3559), apoptosis genes): -0.031 | IL2RB log2FC (gene IL2RB (3560), apoptosis genes): 0.014 | IL12A log2FC (gene IL12A (3592), apoptosis genes): 0.00544 | log2FC IL12A (gene IL12A (Gene 3592), cell cycle genes): 0.00544 | IL12B log2FC (gene IL12B (3593), apoptosis genes): -0.025 | IL17A log2FC (gene IL17A (3605), apoptosis genes): -0.016 | IL19 log2FC (gene IL19 (29949), apoptosis genes): -0.00458 | ILK log2FC (gene ILK (3611), apoptosis genes): -0.066 | log2FC ILKAP (gene ILKAP (Gene 80895), cell cycle genes): 0.002 | INSL6 log2FC (gene INSL6 (11172), apoptosis genes): 0.055 | ISL1 log2FC (gene ISL1 (3670), apoptosis genes): -0.036 | ITGA6 log2FC (gene ITGA6 (3655), apoptosis genes): -0.050 | ITGB2 log2FC (gene ITGB2 (3689), apoptosis genes): -0.075 | ITM2C log2FC (gene ITM2C (81618), apoptosis genes): -0.082 | log2FC KATNB1 (gene KATNB1 (Gene 10300), cell cycle genes): 0.014 | log2FC KCNA5 (gene KCNA5 (Gene 3741), cell cycle genes): -0.012 | KDR log2FC (gene KDR (3791), apoptosis genes): -0.026 | log2FC (gene KIAA0101 (Gene 9768), cell cycle genes): 0.294 | KIAA1324 log2FC (gene KIAA1324 (57535), apoptosis genes): -0.008 | log2FC KIF2B (gene KIF2B (Gene 84643), cell cycle genes): -0.018 | log2FC (gene KIF13A (Gene 63971), cell cycle genes): 0.190 | log2FC (gene KIF23 (Gene 9493), cell cycle genes): 0.530 | log2FC KIF25 (gene KIF25 (Gene 3834), cell cycle genes): -0.013 | KLF4 log2FC (gene KLF4 (9314), apoptosis genes): -0.009 | KRT20 log2FC (gene KRT20 (54474), apoptosis genes): -0.037 | LALBA log2FC (gene LALBA (3906), apoptosis genes): 0.031 | log2FC LATS1 (gene LATS1 (Gene 9113), cell cycle genes): 0.043 | log2FC (gene LATS2 (Gene 26524), cell cycle genes): 0.213 | LCMT1 log2FC (gene LCMT1 (51451), apoptosis genes): -0.115 | LCN2 log2FC (gene LCN2 (3934), apoptosis genes): 0.046 | log2FC (gene LEMD3 (Gene 23592), cell cycle genes): 0.294 | LGALS1 log2FC (gene LGALS1 (3956), apoptosis genes): 0.017 | LGALS12 log2FC (gene LGALS12 (85329), apoptosis genes): 0.013 | LGALS14 log2FC (gene LGALS14 (56891), apoptosis genes): -0.009 | log2FC (gene LMNA (Gene 4000), cell cycle genes): -0.311 | LRP1 log2FC (gene LRP1 (4035), apoptosis genes): 0.0019 | log2FC (gene LRP6 (Gene 4040), cell cycle genes): -0.141 | log2FC (gene LSM11 (Gene 134353), cell cycle genes): 0.145 | LTA log2FC (gene LTA (4049), apoptosis genes): -0.039 | LTF log2FC (gene LTF (4057), apoptosis genes): 0.011 | MAD2L1 log2FC (gene MAD2L1 (4085), apoptosis genes): 0.081 | MAEL log2FC (gene MAEL (84944), apoptosis genes): -0.018 | log2FC MAEL (gene MAEL (Gene 84944), cell cycle genes): -0.018 | MAGED1 log2FC (gene MAGED1 (9500), apoptosis genes): -0.026 | MAGEH1 log2FC (gene MAGEH1 (28986), apoptosis genes): -0.040 | MAP2K5 log2FC (gene MAP2K5 (5607), apoptosis genes): -0.077 | MAP2K7 log2FC (gene MAP2K7 (5609), apoptosis genes): 0.020 | log2FC (gene MAP3K8 (Gene 1326), cell cycle genes): 0.390 | log2FC (gene MAP4 (Gene 4134), cell cycle genes): -0.267 | MAPK1 log2FC (gene MAPK1 (5594), apoptosis genes): -0.045 | log2FC (gene MAPK4 (Gene 5596), cell cycle genes): -0.157 | log2FC (gene MAPK6 (Gene 5597), cell cycle genes): 0.270 | MAPK8 log2FC (gene MAPK8 (5599), apoptosis genes): 0.027 | MAPK9 log2FC (gene MAPK9 (5601), apoptosis genes): 0.064 | log2FC (gene MAPK12 (Gene 6300), cell cycle genes): -0.374 | MAPT log2FC (gene MAPT (4137), apoptosis genes): -0.024 | log2FC MCM4 (gene MCM4 (Gene 4173), cell cycle genes): 0.015 | MDM4 log2FC (gene MDM4 (4194), apoptosis genes): 0.064 | log2FC (gene MED25 (Gene 81857), cell cycle genes): -0.377 | MKL1 log2FC (gene MKL1 (57591), apoptosis genes): 0.068 | MKNK1 log2FC (gene MKNK1 (8569), apoptosis genes): -0.00243 | MNDA log2FC (gene MNDA (4332), apoptosis genes): -0.056 | MSX2 log2FC (gene MSX2 (4488), apoptosis genes): 0.054 | MT3 log2FC (gene MT3 (4504), apoptosis genes): -0.266 | log2FC (gene MYOG (Gene 4656), cell cycle genes): -0.210 | NACA log2FC (gene NACA (4666), apoptosis genes): 0.023 | log2FC NANOG (gene NANOG (Gene 79923), cell cycle genes): -0.00653 | log2FC (gene NASP (Gene 4678), cell cycle genes): 0.392 | NCF1 log2FC (gene NCF1 (653361), apoptosis genes): -0.052 | NCF2 log2FC (gene NCF2 (4688), apoptosis genes): -0.027 | log2FC (gene NCOR1 (Gene 9611), cell cycle genes): 0.294 | NDUFS3 log2FC (gene NDUFS3 (4722), apoptosis genes): -0.101 | NEURL log2FC (gene NEURL (9148), apoptosis genes): -0.034 | NEUROD1 log2FC (gene NEUROD1 (4760), apoptosis genes): -0.043 | log2FC NEUROG1 (gene NEUROG1 (Gene 4762), cell cycle genes): 0.161 | NLE1 log2FC (gene NLE1 (54475), apoptosis genes): 0.057 | NME6 log2FC (gene NME6 (10201), apoptosis genes): -0.008 | log2FC NME6 (gene NME6 (Gene 10201), cell cycle genes): -0.008 | NOS1AP log2FC (gene NOS1AP (9722), apoptosis genes): 0.022 | NOTCH1 log2FC (gene NOTCH1 (4851), apoptosis genes): -0.090 | NOX5 log2FC (gene NOX5 (79400), apoptosis genes): -0.012 | log2FC NOX5 (gene NOX5 (Gene 79400), cell cycle genes): -0.012 | NTRK1 log2FC (gene NTRK1 (4914), apoptosis genes): -0.014 | log2FC (gene NUMA1 (Gene 4926), cell cycle genes): -0.415 | log2FC (gene NUP153 (Gene 9972), cell cycle genes): -0.238 | log2FC NUP155 (gene NUP155 (Gene 9631), cell cycle genes): -0.034 | log2FC (gene NUP188 (Gene 23511), cell cycle genes): -0.304 | NUPR1 log2FC (gene NUPR1 (26471), apoptosis genes): 0.023 | OSR1 log2FC (gene OSR1 (130497), apoptosis genes): -0.039 | P4HB log2FC (gene P4HB (5034), apoptosis genes): 0.022 | log2FC (gene PA2G4 (Gene 5036), cell cycle genes): -0.298 | PAFAH2 log2FC (gene PAFAH2 (5051), apoptosis genes): 0.046 | PAK6 log2FC (gene PAK6 (56924), apoptosis genes): -0.022 | log2FC PAK6 (gene PAK6 (Gene 56924), cell cycle genes): -0.022 | log2FC (gene PAPD5 (Gene 64282), cell cycle genes): 0.341 | PARK7 log2FC (gene PARK7 (11315), apoptosis genes): 0.028 | PAX2 log2FC (gene PAX2 (5076), apoptosis genes): 0.003 | log2FC PCNA (gene PCNA (Gene 5111), cell cycle genes): -0.00322 | PCSK9 log2FC (gene PCSK9 (255738), apoptosis genes): -0.039 | log2FC PDCD2L (gene PDCD2L (Gene 84306), cell cycle genes): 0.012 | PDCD5 log2FC (gene PDCD5 (9141), apoptosis genes): 0.123 | PDCL3 log2FC (gene PDCL3 (79031), apoptosis genes): -0.100 | PDE1B log2FC (gene PDE1B (5153), apoptosis genes): 0.004 | PDE3A log2FC (gene PDE3A (5139), apoptosis genes): -0.006 | log2FC PDE3A (gene PDE3A (Gene 5139), cell cycle genes): -0.006
